The results in this text go back to patent US9808448B2, “Pharmaceutical compounds and use of same in cancer and tauopathies” (THE REGENTS OF THE UNIVERSITY OF MICHIGAN, priority 2013, dated 2017).

Some results are limits rather than exact numbers.

For orientation: IC50 means the concentration at which inhibition is half-maximal. A lower IC50 goes with greater potency.

For this assay, the system named is MDA-MB-231. Kind of assay: Cancer activity screen (MTT cell survival), MDA-MB-231. The format is cell-based. The following applies: Homo sapiens, second table.
Consider `CCn1c(=O)/c(=C2\Sc3ccc(Cl)cc3N2C)s/c1=C\c1scc[n+]1Cc1ccccc1C(F)(F)F`, for which the IC50 worked out at 0.25 ± 0.03 µM. The figure for `CCn1c(=O)/c(=C2\Sc3cc(Cl)ccc3N2C)s/c1=C\c1scc[n+]1C(C)C(=O)c1ccccc1` (stereo not drawn) is 0.34 ± 0.03 µM; for `CN1/C(=c2\s/c(=C\c3scc[n+]3Cc3ccccc3)n(C3CC3)c2=O)Sc2cc(F)ccc21` it is 0.76 ± 0.08 µM; for `COC(=O)Cn1c(=O)/c(=C2\Sc3cc(C(F)(F)F)ccc3N2C)s/c1=C\c1cccc[n+]1C` it is more than 20 µM. Compound `CCn1c(=O)/c(=C2\Sc3cc(C(F)(F)F)ccc3N2C)s/c1=C\c1scc[n+]1CC` returned an IC50 of 4.2 ± 0.6 µM.

In turn, `CN1/C(=c2\s/c(=C\c3ccncc3)n(CC(=O)O)c2=O)Sc2cccc(F)c21` displayed a 50% inhibitory concentration (IC50) of more than 20 µM. The figure for `COC(=O)CCn1c(=O)/c(=C2\Sc3cc(F)ccc3N2C)s/c1=C\c1scc[n+]1Cc1ccccc1` is 0.96 ± 0.07 µM; for `COC(=O)Cn1c(=O)/c(=C2\Sc3ccc(F)cc3N2C)s/c1=C\c1ccccn1` it is more than 20 µM. The figure for `CCn1c(=O)/c(=C2\Sc3cccc(C)c3N2C)s/c1=C\c1scc[n+]1Cc1ccccc1` is 0.21 ± 0.04 µM; for `CN1/C(=c2\s/c(=C\c3scc[n+]3Cc3ccccc3)n(C3CC3)c2=O)Sc2cc(Cl)ccc21` it is 0.56 ± 0.08 µM; for `CCn1c(=O)/c(=C2\Sc3cc(Cl)ccc3N2C)s/c1=C\c1scc[n+]1Cc1ccc(C(=O)OC)o1` it is 0.97 ± 0.1 µM.

In the case of `C=CCn1c(=O)/c(=C2\Sc3cccc(F)c3N2C)s/c1=C\c1ccncc1`, half-maximal inhibition (IC50) required 0.38 ± 0.03 µM. The figure for `COC(=O)CCn1c(=O)/c(=C2\Sc3cc(Cl)ccc3N2C)s/c1=C\c1ccccn1` is more than 20 µM.

In turn, `CCn1c(=O)/c(=C2\Sc3c(ccc(F)c3F)N2C)s/c1=C\c1cccc[n+]1Cc1ccsc1` came in with a concentration for half-maximal inhibition (IC50) of 2.09 ± 0.31 µM.

`CCn1c(=O)/c(=C2\Sc3cc(F)ccc3N2C)s/c1=C\c1scc[n+]1Cc1ccccc1` had an IC50 of 0.15 ± 0.01 µM. The compound `CCn1c(=O)/c(=C2\Sc3c(ccc(F)c3F)N2C)s/c1=C\c1cccc[n+]1Cc1ccsc1Br` had a half-maximal inhibitory concentration (IC50) of 0.92 ± 0.17 µM. Then `COC(=O)Cn1c(=O)/c(=C2\Sc3cc(F)ccc3N2C)s/c1=C\c1ccncc1`, with 2 ± 0.2 µM; and `CCn1c(=O)/c(=C2\Sc3cc(C)ccc3N2C)s/c1=C\c1scc[n+]1Cc1ccccc1`, with 0.041 ± 0.006 µM.

`CCn1c(=O)/c(=C2\Sc3c(ccc(F)c3F)N2C)s/c1=C\c1nccs1` returned an IC50 of 11.7 ± 2.3 µM. The figure for `CCn1c(=O)/c(=C2\Sc3c(ccc(F)c3F)N2C)s/c1=C\c1scc[n+]1Cc1ccsc1C(=O)OC` is 0.21 ± 0.03 µM.

On to `CCn1c(=O)/c(=C2\Sc3cc(OC(F)(F)F)ccc3N2C)s/c1=C\c1cccc[n+]1Cc1ccccc1`, for which the IC50 amounted to 0.71 ± 0.12 µM. Compound `COC(=O)Cn1c(=O)/c(=C2\Sc3cc(F)ccc3N2C)s/c1=C\c1ccccn1` yielded a half-maximal inhibitory concentration (IC50) of more than 20 µM. Then `CCN1C(=O)/C(=C2\Sc3ccc(F)cc3N2C)S/C1=N\c1ccccc1`, with 9.18 ± 1.04 µM.

In the case of `COC(=O)[C@@H](C)n1c(=O)/c(=C2\Sc3cc(F)ccc3N2C)s/c1=C\c1scc[n+]1Cc1ccccc1`, the IC50 worked out at 1.2 ± 0.14 µM. `COC(=O)Cn1c(=O)/c(=C2\Sc3c(F)cccc3N2C)s/c1=C\c1ccncc1` yielded an IC50 of more than 20 µM. In turn, `CCn1c(=O)/c(=C2\Sc3cc(F)ccc3N2C)s/c1=C\c1scc[n+]1Cc1ccccc1C(F)(F)F` showed an IC50 of 0.21 ± 0.03 µM. With `CCn1c(=O)/c(=C2\Sc3c(ccc(F)c3F)N2C)s/c1=C\c1scc[n+]1C`, the concentration for half-maximal inhibition (IC50) amounted to 5.6 ± 0.6 µM. For the compound `COC(=O)Cn1c(=O)/c(=C2\Sc3cc(F)ccc3N2C)s/c1=C\c1scc[n+]1Cc1ccccc1`, the IC50 stood at 2.9 ± 0.3 µM. `CCn1c(=O)/c(=C2\Sc3cc(C(F)(F)F)ccc3N2C)s/c1=C\c1scc[n+]1C` displayed an IC50 of 8.5 ± 1 µM. Then `CCn1c(=O)/c(=C2\Sc3c(ccc(F)c3F)N2C)s/c1=C\c1scc[n+]1Cc1ccccc1`, with 0.24 ± 0.01 µM. On to `CCn1c(=O)/c(=C2\Sc3cc(C(F)(F)F)ccc3N2C)s/c1=C\c1nccs1`, for which the IC50 is 2.6 ± 0.5 µM. The figure for `CN1/C(=c2\s/c(=C\c3scc[n+]3Cc3ccccc3C(F)(F)F)n(C)c2=O)Sc2c1ccc(F)c2F` is 0.12 ± 0.009 µM; for `CCn1c(=O)/c(=C2\Sc3c(ccc(F)c3F)N2C)s/c1=C\c1scc[n+]1Cc1ccsc1` it is 0.81 ± 0.06 µM. Then `CCn1c(=O)/c(=C2\Sc3cc(C(F)(F)F)ccc3N2C)s/c1=C\c1scc[n+]1Cc1ccccc1`, with 0.36 ± 0.03 µM; and `COC(=O)Cn1c(=O)/c(=C2\Sc3cc(C(F)(F)F)ccc3N2C)s/c1=C\c1scc[n+]1Cc1ccccc1`, with 2.1 ± 0.4 µM.

For `CCn1c(=O)/c(=C2\Sc3cc(Cl)ccc3N2C)s/c1=C\c1scc[n+]1Cc1cccnc1Br`, the midpoint of inhibition, the IC50, lay at 1.6 ± 0.2 µM. With `CCn1c(=O)/c(=C2\Sc3c(C)cccc3N2C)s/c1=C\c1scc[n+]1Cc1ccccc1`, half-maximal inhibition (IC50) required 0.25 ± 0.03 µM. As for `CCn1c(=O)/c(=C2\Sc3cc(Cl)ccc3N2C)s/c1=C\c1scc[n+]1Cc1cc(-c2ccccc2)no1`, the concentration for half-maximal inhibition (IC50) stood at 0.17 ± 0.01 µM.

In turn, `COC(=O)Cn1c(=O)/c(=C2\Sc3cccc(F)c3N2C)s/c1=C\c1ccccn1` showed an IC50 of more than 20 µM. In the case of `CCOC(=O)c1ccc(C[n+]2ccsc2/C=c2\s/c(=C3/Sc4cc(Cl)ccc4N3C)c(=O)n2CC)o1`, the IC50 was 0.72 ± 0.08 µM. Then `CCn1c(=O)/c(=C2\Sc3cc(Cl)ccc3N2C)s/c1=C\c1scc[n+]1Cc1ccc([N+](=O)[O-])o1`, with more than 30 µM; and `CCn1c(=O)/c(=C2\Sc3cc(C(F)(F)F)ccc3N2C)s/c1=C\c1ccncc1`, with more than 20 µM; and `CCn1c(=O)/c(=C2\Sc3ccc(Cl)cc3N2C)s/c1=C\c1scc[n+]1Cc1cc(-c2ccccc2)no1`, with 0.5 ± 0.04 µM. Take `CCn1c(=O)/c(=C2\Sc3c(ccc(F)c3F)N2C)s/c1=C\c1scc[n+]1Cc1ccc(C(F)(F)F)o1`: the half-maximal inhibitory concentration (IC50) worked out at 0.51 ± 0.05 µM. In turn, `CCn1c(=O)/c(=C2\Sc3cc(Cl)ccc3N2C)s/c1=C\c1scc[n+]1Cc1ccsc1C(=O)OC` showed a 50% inhibitory concentration (IC50) of 0.076 ± 0.01 µM. Consider `CCn1c(=O)/c(=C2\Sc3cc(Cl)ccc3N2C)s/c1=C\c1scc[n+]1Cc1ccsc1Br`, for which 0.2 ± 0.02 µM corresponded to half-maximal inhibition (IC50). Compound `CCn1c(=O)/c(=C2\Sc3cc(F)ccc3N2C)s/c1=C\c1scc[n+]1Cc1ccsc1C(=O)OC` had a half-maximal inhibitory concentration (IC50) of 0.14 ± 0.02 µM. For the compound `CCn1c(=O)/c(=C2\Sc3c(ccc(F)c3F)N2C)s/c1=C\c1cccc[n+]1Cc1ccc(C(F)(F)F)o1`, the half-maximal inhibitory concentration (IC50) amounted to 0.92 ± 0.1 µM. With `CCn1c(=O)/c(=C2\Sc3cc(Cl)ccc3N2C)s/c1=C\c1scc[n+]1Cc1ccsc1`, the IC50 worked out at 0.11 ± 0.01 µM. The figure for `COC(=O)Cn1c(=O)/c(=C2\Sc3ccc(F)cc3N2C)s/c1=C\c1ccncc1` is more than 20 µM; for `COC(=O)[C@@H](C)n1c(=O)/c(=C2\Sc3cc(F)ccc3N2C)s/c1=C\c1ccccn1` it is more than 20 µM; for `COC(=O)Cn1c(=O)/c(=C2\Sc3c(F)cccc3N2C)s/c1=C\c1ccccn1` it is more than 20 µM.

As for `CCn1c(=O)/c(=C2\Sc3cc(C#N)ccc3N2C)s/c1=C\c1cccc[n+]1Cc1ccccc1`, it took 1.4 ± 0.1 µM to reach half-maximal inhibition (IC50). Then `CCn1c(=O)/c(=C2\Sc3cc(Cl)ccc3N2C)s/c1=C\c1scc[n+]1Cc1cc(C)on1`, with 0.22 ± 0.02 µM. Consider `CCn1c(=O)/c(=C2\Sc3cc(C#N)ccc3N2C)s/c1=C\c1ccccn1`, for which it took 22.3 ± 4.61 µM to reach half-maximal inhibition (IC50).

For `CCn1c(=O)/c(=C2\Sc3cc(Cl)ccc3N2C)s/c1=C\c1scc[n+]1Cc1ccccc1C(F)(F)F`, 0.13 ± 0.01 µM corresponded to half-maximal inhibition (IC50). The figure for `COC(=O)CCn1c(=O)/c(=C2\Sc3cc(F)ccc3N2C)s/c1=C\c1ccccn1` is 9 ± 1.7 µM.
